TGI and GI50 data for 20 compounds are collected here from PubChem BioAssay (NCI).

Holding throughout (test): NCI tumour cell line growth inhibition, 48 h
The test system of assay [1] is DMS 114 small cell lung.
Assay [2] relates to HOP-18 NSCLC.
The subject of assay [3] is KM20L2 colon.
Assay [4] relates to LXFL 529 NSCLC.
The subject of assay [5] is M19-MEL melanoma.
The test system of assay [6] is RXF-631 renal.
Assay [7] deals with DU-145 prostate.
Assay [8] concerns HS 578T breast.
In assay [9] the test system is MDA-MB-231 breast.
The subject of assay [10] is MDA-MB-435.
The subject of assay [11] is T-47D breast.

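All cell lines were grown in 96-well plates and treated with compound for 48 hours. Abbreviation: GI50, concentration required for 50% inhibition of growth. TGI: total growth inhibition.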 Bounds are passed on as bounds.

Take `O=S(O)CCCCSSCCCCSSCCCCS(=O)O`: the TGI was > 100 µM in assay [1]; > 100 µM in assay [2]; > 100 µM in assay [3]; 28.4 µM in assay [4]; > 100 µM in [5]; > 100 µM in assay [6].

As for `CC(C)=[CH][Sb]([Br])([CH]=C(C)C)([CH]=C(C)C)[CH]=C(C)C`, the GI50 in assay [1] is 1.61 µM; in assay [3], 13.1 µM; in [4], 6.58 µM; in assay [5], 6.14 µM. Also, the TGI in assay [1] is 4.85 µM; in [3], > 100 µM; in assay [4], > 100 µM; in assay [5], > 100 µM.

Take `O=C(/C=C/c1ccccc1Cl)c1ccccc1Cl`: the TGI in [1] worked out at 34.8 µM; in assay [2], 89.2 µM; in assay [3], 33.3 µM; in assay [4] it was 32 µM; in assay [5] it was 61 µM.

As to `O=C(NC1CCCCCC1)C1C(=O)N(C2CCCCCC2)C(=O)/C1=N\O` (centres undefined), the TGI in assay [1] was 84.5 µM; in assay [2] it was > 100 µM; in assay [3], 49 µM; in assay [4], > 100 µM; in assay [5], 75.6 µM.

On to `CC(=O)SCCC1c2[nH]c3ccccc3c2CCN1O` (centres undefined), for which the TGI in assay [1], in assay [2], in assay [3], in [4] and in [5] was > 100 µM throughout.

As to `Cc1cccc(C(C)(C)C)c1NC(=O)CCc1n[nH]c(=S)o1`, the TGI in assay [1], in assay [2], in [3], in [4] and in assay [5] was > 100 µM each time.

`CCc1cccc(C)c1NC(C)=O`: the TGI in [1], in [3], in assay [4], in assay [5] and in [6] was > 100 µM each time.

Take `CCN(CC)C(=O)C/C(C)=N/NC(=O)c1ccncc1`: the TGI in assay [1], in [3] and in [4] was > 100 µM in each case.

Take `COC(=O)CSc1n[nH]c(-c2ccc(O)c([N+](=O)[O-])c2)n1`: the TGI in assay [3], in assay [4] and in assay [6] was > 100 µM throughout.

For `COc1ccc(C(=O)O)c(Cc2cccc3ccccc23)c1`, the TGI in assay [1], in assay [2], in [3], in assay [4], in assay [5] and in assay [6] was > 100 µM each time.

Take `CC#CC(=O)Nc1ccccc1CC(c1c[nH]c2ccccc12)c1c[nH]c2ccccc12`: the TGI in assay [1] is 29.9 µM; in assay [4], 38 µM; in [5], 31.2 µM.

For `Cc1ccc(C(=O)/C=C/c2ccccc2O)c(C)c1`, the TGI was > 100 µM in [1], > 100 µM in assay [3], > 100 µM in assay [4] and 3.07 µM in [5].

Regarding `CC(=O)NC(CCCN)C(=O)NCc1ccccc1` (centres undefined), the TGI in assay [1], in [3], in [4] and in assay [5] was > 100 µM in each case.

Regarding `COc1ccc2cc(C(=O)/C=C/c3cccc(OC)c3OC)ccc2c1`, the GI50 in assay [7] is 15.3 µM; in assay [8] it was 25.5 µM; in assay [9], 14.8 µM; in assay [10] it was 5.16 µM; in assay [11], 3.9 µM. Moreover, the TGI in [7] came to 34.2 µM; in assay [8] it was 73.9 µM; in [9] it was 38.5 µM; in [10], 29.7 µM; in assay [11], 35.5 µM.

Consider `NCCCNCCSSCCCCS(=O)O`, for which the TGI was > 100 µM in assay [1]; > 100 µM in assay [2]; > 100 µM in [3]; 92.2 µM in assay [4]; 40.5 µM in assay [5]; > 100 µM in assay [6].

With `COc1ccc(OC(=O)O[C@H]2[C@H](O[C@H]3[C@@H](O)COC(O[C@H]4C[C@H]5[C@@H]6CC=C7C[C@@H](O)CC[C@]7(C)[C@H]6CC[C@]5(C)[C@H]4[C@H](C)C(=O)CCC(C)C)[C@@H]3OC(C)=O)OC[C@@H](O)[C@@H]2O)cc1` (some centres undefined), the GI50 is 3.53 µM in [7]; < 0.01 µM in assay [8]; 0.961 µM in assay [9]; 0.0695 µM in assay [10]; 0.0505 µM in assay [11]. The TGI amounted to 22.7 µM in [7]; 0.185 µM in assay [8]; 18.1 µM in assay [9]; 0.759 µM in assay [10]; 19.8 µM in [11].

Turning to `COC(=O)C1=C(c2ccc3c(c2)OCO3)O[C@H](c2ccc3c(c2)OCO3)[C@H]1COC(C)=O`, the TGI in assay [1], in assay [2], in [3], in [4] and in assay [5] was > 100 µM each time.

On to `CCCCCCCCCCCCCCCCOP(=O)(O)Oc1ccc(/C=C\c2ccc(OP(=O)(O)OCCCCCCCCCCCCCCCC)cc2)cc1`, for which the TGI in assay [1] is 49.4 µM; in assay [2], > 100 µM; in assay [3] it was > 100 µM; in assay [4], > 100 µM; in [5], > 100 µM; in assay [6], > 100 µM.

`COc1cc(C2c3cc4c(cc3[C@H](OCCN(C)C)[C@@H]3COC(=O)C23)OCO4)cc(OC)c1O` (some centres undefined): the TGI was 0.549 µM in assay [7]; > 100 µM in [2]; 6.04 µM in [8]; 2.98 µM in assay [3]; 28 µM in assay [4]; 4.79 µM in [5]. In addition, the TGI in assay [9] was 39.3 µM; in assay [10] it was 16.9 µM; in [6], 1.07 µM; in assay [11] it was 2.52 µM.

For the compound `CCOC(=O)[C@H]1Nc2ccc(C)cc2C2c3ccccc3CC21` (some centres undefined), the TGI in [1], in assay [2], in assay [3], in assay [4] and in assay [5] was > 100 µM throughout.
